Laboratory results taken from US20070117770A1, “Human ribosomal DNA (rDNA) and ribosomal RNA (rRNA) nucleic acids and uses thereof” (Cylene Pharmaceuticals, Inc., priority 2005, published 2007).

Key:
Assay in all cases: Protein kinase inhibition assay
Type in all cases: biochemical
[1] = target: MLCK(h) (Homo sapiens, UniProt Q9H1R3); details: read-out: percent residual activity of MLCK(h)
Experimental: (§1) Certain compounds were tested for activity in protein kinase inhibition assays. All substrates were dissolved and diluted to working stocks in de-ionized water, apart from histone H1 (10× working stock in 20 mM MOPS pH 7.0), PDKtide (10× working stock in 50 mM Tris pH 7.0) ATF2 (which is typically stored at a 20× working stock in 50 mM Tris pH 7.5, 150 mM NaCl, 0.1 mM EGTA, 0.03% Brij-35, 50% glycerol, 1 mM benzamidine, 0.2 mM PMSF and 0.1% R-mercaptoethanol), KKLNRTLSFAEPG (SEQ ID NO:203) and RRRLSFAEPG (SEQ ID NO:204) (50 mM HEPES pH 7.4) and GGEEEEYFELVKKKK (SEQ ID NO:205) (20 mM MOPS pH 7.0). All kinases were pre-diluted to a 10× working concentration prior to addition into the assay. The composition of the dilution buffer for each kinase is detailed below.
(§2) In a final reaction volume of 25 μl, MLCK (h) (5-10 mU) is incubated with 8 mM MOPS pH 7.0, 0.2 mM EDTA, 0.5 mM CaCl2, 16 μg/ml calmodulin,250 μM KKLNRTLSFAEPG (SEQ ID NO:203), 10 mM MgAcetate and [gamma-33P-ATP] (specific activity approx. 500 cpm/pmol, concentration as required). The reaction is initiated by the addition of the MgATP mix. After incubation for 40 minutes at room temperature, the reaction is stopped by the addition of 5 μl of a 3% phosphoric acid solution. […]

[2] = target: GSK3α(h) (Homo sapiens, UniProt P49840); details: read-out: percent residual activity of GSK3α(h)
Experimental: as §1
as §2, with “GSK3α” for “MLCK”, “20” for “0.5 mM CaCl2, 16 μg/ml calmodulin,250”, “[…](p)EDEEE” for “KKLNRTLSFAEPG”, “NO:216) (phospho GS2 peptide),” for “NO:203),”

[3] = target: PKCβI(h) (Homo sapiens, UniProt P05771); details: read-out: percent residual activity of PKCβI(h)
Experimental: as §1
as §2, with “[…], PKCβI” for “μl, MLCK”, “20” for “8”, “HEPES” for “MOPS”, “7.4, 0.03% Triton X-100, 0.1” for “7.0, 0.2 mM EDTA, 0.5”, “0.1 mg/ml phosphatidylserine, 10” for “16”, “diacylglycerol, 0.1 mg/ml histone H1,” for “calmodulin,250 μM KKLNRTLSFAEPG (SEQ ID NO:203),”

[4] = target: Blk(m) (Mus musculus, UniProt P16277); details: read-out: percent residual activity of Blk(m)
Experimental: as §1
as §2, with “Blk (m)” for “MLCK (h)”, “50” for “8”, “Tris” for “MOPS”, “7.5, 0.1” for “7.0, 0.2”, “EGTA, 0.1” for “EDTA, 0.5”, “Na3VO4, 0.1% R-mercaptoethanol, 0.1 mg/ml poly(Glu, Tyr) 4:1,” for “CaCl2, 16 μg/ml calmodulin,250 μM KKLNRTLSFAEPG (SEQ ID NO:203),”

[5] = target: Ret(h) (Homo sapiens, UniProt P07949); details: read-out: percent residual activity of Ret(h)
Experimental: as §1
(§3) In a final reaction volume of 25 μl, Ret (h) (5-10 mU) is incubated with 8 mM MOPS pH 7.0, 0.2 mM EDTA, 250 μM KKKSPGEYVNIEFG (SEQ ID NO:207), 10 mM MgAcetate and [gamma-33P-ATP] (specific activity approx. 500 cpm/pmol, concentration as required). The reaction is initiated by the addition of the MgATP mix. After incubation for 40 minutes at room temperature, the reaction is stopped by the addition of 5 μl of a 3% phosphoric acid solution. 10 μl of the reaction is then spotted onto a P30 filtermat and washed three times for 5 minutes in 75 mM phosphoric acid and once in methanol prior to drying and scintillation counting.

[6] = target: Fgr(h) (Homo sapiens, UniProt P09769); details: read-out: percent residual activity of Fgr(h)
Experimental: as §1
as §3, with “Fgr” for “Ret”, “0.1 mg/ml poly(Glu, Tyr) 4:1,” for “250 μM KKKSPGEYVNIEFG (SEQ ID NO:207),”, “Filtermat A” for “P30 filtermat”

Sequence of PKCβI(h) (P05771 whole entry): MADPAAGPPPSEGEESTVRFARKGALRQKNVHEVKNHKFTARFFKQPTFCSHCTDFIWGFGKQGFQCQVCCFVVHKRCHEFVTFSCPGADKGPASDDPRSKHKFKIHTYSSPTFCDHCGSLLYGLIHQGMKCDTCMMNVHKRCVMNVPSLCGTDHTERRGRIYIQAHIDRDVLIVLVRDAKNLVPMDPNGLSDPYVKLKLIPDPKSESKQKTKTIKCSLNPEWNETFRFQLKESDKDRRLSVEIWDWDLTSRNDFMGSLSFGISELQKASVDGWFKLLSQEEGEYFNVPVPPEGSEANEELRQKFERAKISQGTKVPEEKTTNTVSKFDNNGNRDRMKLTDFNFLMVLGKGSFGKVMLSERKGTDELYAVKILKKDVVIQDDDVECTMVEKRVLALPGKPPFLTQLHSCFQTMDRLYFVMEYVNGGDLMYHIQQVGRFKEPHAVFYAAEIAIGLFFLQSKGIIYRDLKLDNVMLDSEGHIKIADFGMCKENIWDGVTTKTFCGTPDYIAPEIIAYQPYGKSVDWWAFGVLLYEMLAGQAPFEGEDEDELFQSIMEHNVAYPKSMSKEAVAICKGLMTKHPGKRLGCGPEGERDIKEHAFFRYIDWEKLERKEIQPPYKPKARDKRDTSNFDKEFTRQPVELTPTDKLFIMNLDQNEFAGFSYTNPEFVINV
Sequence of Ret(h) (P07949 29-1114): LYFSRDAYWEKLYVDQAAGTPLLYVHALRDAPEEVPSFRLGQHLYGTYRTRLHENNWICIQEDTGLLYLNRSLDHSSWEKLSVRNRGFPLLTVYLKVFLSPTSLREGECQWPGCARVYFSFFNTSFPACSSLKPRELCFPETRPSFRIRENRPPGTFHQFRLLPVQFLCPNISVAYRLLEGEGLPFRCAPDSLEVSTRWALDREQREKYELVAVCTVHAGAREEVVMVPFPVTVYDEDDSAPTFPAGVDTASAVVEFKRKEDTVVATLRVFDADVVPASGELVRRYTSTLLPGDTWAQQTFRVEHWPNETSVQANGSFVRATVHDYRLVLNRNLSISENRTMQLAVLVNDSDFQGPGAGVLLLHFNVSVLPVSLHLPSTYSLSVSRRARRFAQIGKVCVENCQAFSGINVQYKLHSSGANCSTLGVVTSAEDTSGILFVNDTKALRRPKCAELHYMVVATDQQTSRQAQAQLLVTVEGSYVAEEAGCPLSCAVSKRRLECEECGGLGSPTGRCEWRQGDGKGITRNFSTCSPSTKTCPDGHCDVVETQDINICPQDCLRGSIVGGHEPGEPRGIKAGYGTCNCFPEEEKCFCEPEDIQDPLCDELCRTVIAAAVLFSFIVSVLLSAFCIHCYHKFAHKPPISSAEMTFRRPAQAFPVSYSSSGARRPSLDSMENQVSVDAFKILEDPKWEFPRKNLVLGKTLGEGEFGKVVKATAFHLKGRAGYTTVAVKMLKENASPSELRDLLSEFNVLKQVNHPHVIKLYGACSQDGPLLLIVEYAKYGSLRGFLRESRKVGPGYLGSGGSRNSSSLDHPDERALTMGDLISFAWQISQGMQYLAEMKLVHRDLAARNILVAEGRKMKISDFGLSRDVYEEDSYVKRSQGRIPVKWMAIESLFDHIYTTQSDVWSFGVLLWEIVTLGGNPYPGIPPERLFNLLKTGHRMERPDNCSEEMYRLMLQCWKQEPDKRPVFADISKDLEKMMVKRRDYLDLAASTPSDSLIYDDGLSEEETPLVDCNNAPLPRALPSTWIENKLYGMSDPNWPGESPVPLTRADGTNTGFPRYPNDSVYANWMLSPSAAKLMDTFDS
Sequence of Fgr(h) (P09769 whole entry): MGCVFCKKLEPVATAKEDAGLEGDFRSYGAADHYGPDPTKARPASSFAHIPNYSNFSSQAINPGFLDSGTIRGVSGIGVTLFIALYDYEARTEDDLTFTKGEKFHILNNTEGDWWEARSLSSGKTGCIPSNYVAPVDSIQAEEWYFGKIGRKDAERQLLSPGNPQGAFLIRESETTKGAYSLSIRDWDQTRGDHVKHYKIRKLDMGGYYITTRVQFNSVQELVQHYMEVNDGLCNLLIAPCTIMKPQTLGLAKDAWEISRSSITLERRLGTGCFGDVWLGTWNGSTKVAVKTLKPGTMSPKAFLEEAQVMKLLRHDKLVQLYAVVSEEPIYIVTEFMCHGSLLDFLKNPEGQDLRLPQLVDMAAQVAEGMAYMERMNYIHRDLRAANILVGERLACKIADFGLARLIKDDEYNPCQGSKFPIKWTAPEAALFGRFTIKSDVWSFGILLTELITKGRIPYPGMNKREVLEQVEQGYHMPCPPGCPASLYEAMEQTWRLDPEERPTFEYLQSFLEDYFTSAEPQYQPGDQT
Sequence of Blk(m) (P16277 whole entry): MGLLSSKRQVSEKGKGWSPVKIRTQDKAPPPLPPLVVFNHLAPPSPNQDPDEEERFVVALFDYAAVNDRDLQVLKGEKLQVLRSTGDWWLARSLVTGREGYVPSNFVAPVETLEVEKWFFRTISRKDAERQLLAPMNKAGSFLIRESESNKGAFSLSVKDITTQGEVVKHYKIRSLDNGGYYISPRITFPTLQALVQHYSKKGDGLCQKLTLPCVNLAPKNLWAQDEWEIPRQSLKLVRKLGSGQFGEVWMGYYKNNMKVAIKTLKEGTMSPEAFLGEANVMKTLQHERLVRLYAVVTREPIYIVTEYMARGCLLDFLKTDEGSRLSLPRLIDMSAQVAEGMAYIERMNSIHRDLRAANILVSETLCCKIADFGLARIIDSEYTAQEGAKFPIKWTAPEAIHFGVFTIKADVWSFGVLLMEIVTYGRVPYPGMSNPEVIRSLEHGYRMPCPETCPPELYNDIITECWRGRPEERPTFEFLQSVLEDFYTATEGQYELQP
Sequence of GSK3α(h) (P49840 whole entry): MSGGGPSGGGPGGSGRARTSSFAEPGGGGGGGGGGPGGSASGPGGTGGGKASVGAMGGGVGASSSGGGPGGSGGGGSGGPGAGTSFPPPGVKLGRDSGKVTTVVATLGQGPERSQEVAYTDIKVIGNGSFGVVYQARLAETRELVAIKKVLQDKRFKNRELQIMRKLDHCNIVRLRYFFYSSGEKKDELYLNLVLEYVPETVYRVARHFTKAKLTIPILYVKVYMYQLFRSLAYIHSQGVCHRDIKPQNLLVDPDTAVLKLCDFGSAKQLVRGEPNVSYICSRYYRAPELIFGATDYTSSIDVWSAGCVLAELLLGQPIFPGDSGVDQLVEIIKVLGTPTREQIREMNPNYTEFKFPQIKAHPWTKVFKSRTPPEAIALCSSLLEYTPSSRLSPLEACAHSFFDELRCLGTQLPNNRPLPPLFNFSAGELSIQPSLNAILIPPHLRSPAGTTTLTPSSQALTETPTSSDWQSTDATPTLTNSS

Row | Compound | remaining activity at 2.5 µM [1] [%] | remaining activity at 2.5 µM [2] [%] | remaining activity at 2.5 µM [3] [%] | remaining activity at 2.5 µM [4] [%] | remaining activity at 2.5 µM [5] [%] | remaining activity at 2.5 µM [6] [%]
1 | CN1CCCC1CCNC(=O)c1cn2c3c(c(N4CCC(c5cnccn5)C4)c(F)cc3c1=O)Oc1cc3ccccc3cc1-2 (stereo not drawn) [Compound A-1] | 77 | 101 | 94 | 117 | 123 | 78
2 | CC(=O)N1CCN(c2ccc3c(=O)c(C(=O)NCCN4CCCC4)c4n(C)c5ccccc5n4c3n2)CC1 [Compound B-1] | 94 | 89 | 97 | 106 | 92 | 98
